Experimental data as given in article PMC8795149, “Characterization of a novel non-steroidal glucocorticoid receptor agonist optimized for topical treatment” (Scientific Reports, 2022).

Experiments:
[1] = system: FKBP5 mRNA (GR target engagement); assay: Minipig skin FKBP5 gene expression after 4 weeks topical treatment; assay type: in vivo; conditions: minipigs, LEO 134310 2%, CP 0.05%, BMV 0.1%
Description: Each animal was treated for 6 h daily over 28 days with 25 µL of the following topical formulations on an application area of 2.5 cm × 2.5 cm: Vehicle (transcutol:acetone (1:9) with 10% hydroxy-propyl-cellulose); Dermovate cream (CP 0.05%), CP 0.05% in vehicle; Betnovate cream (BMV 0.1%); BMV 0.1% in vehicle; LEO 134310 2% in vehicle. One test field on each animal remained untreated.
RNA was extracted from the biopsies and qPCR was performed using customized TaqMan gene expression assays for FKBP5 and TBP (reference gene).

[2] = system: HPA axis; set-up: method as in PMID 3553247; conditions: topical; cited from earlier work
[3] = Hepatocyte stability (minipig); assay type: in vitro ADME; conditions: predicted hepatic clearance, well stirred model
Description: (§1) Compounds (1.0 µM) were incubated in duplicates with rat, dog, minipig or human hepatocytes (1.0 million cells/mL) in phosphate buffer, in 96-well plates for 120 min (37 °C). Reactions were stopped by addition of cold acetonitrile, at 0, 10, 30, 60, and 120 min, and dispensed into cold acetonitrile to stop the reactions. Plates were centrifuged for 30 min and samples were analysed using liquid chromatography coupled to a time-of-flight mass spectrometer. Compound depletion over time was used to estimate the elimination rate constant, from which the apparent intrinsic clearance (CLapp), and half-life (t½), were calculated.

[4] = TPA mouse model, blood concentration after topical dose; assay type: in vivo; conditions: blood concentrations at 2 h after the last topical dose
Description: Treatments were performed by topical application of either vehicle (90% acetone, 10% transcutol), Treatments were applied twice daily on days 8, 9, 10, and once on day 11 (20–10 μL to each side of ear) with at least 5 h between the first and second treatment. TPA challenge on days 8 and 10 was performed at least 1 h after the first treatment. On day 11, animals were sacrificed 2 h after the last dosing. Blood was sampled by cardiac puncture from animals anaesthetized with isoflurane. Thereafter, ear biopsies were taken with a biopsy punch (8 mm diameter), weighed and stored at – 80 °C. Plasma osteocalcin levels were analyzed by EIA (rat-MID, IDS, UK). Effective inhibitory doses (ID50) were determined from a sigmoid I(max) model in Phoenix64, Pharsight, Certara. Therapeutic Index (TI) was calculated either as ID50 for spleen weight reduction or ID50 for blood osteocalcin concentrations, divided by ID50 for ear weight reduction.

[5] = system: PPAR-alpha, LXR-beta, RAR-alpha, RXR-alpha, ER-alpha, PR, AR, ER-beta and TR; assay: Selectivity screening on nuclear receptors, radioligand binding (CEREP); set-up: species or system human; conditions: 10µM; greater than 25% displacement considered significant
Description: Selectivity screening on nuclear receptors – Studies were performed at CEREP using their proprietary assays for human PPARalpha, LXRbeta, RARalpha, RXRalpha, ERalpha, ERbeta, progesterone receptor, androgen receptor and thyroid hormone receptor employing specific, radiolabeled agonist ligands. Interactions leading to greater than 25% displacement of the radiolabeled agonist ligand were considered significant. Concentrations of LEO 134310 and LEO 134998 were 10µM.

[6] = In vivo pharmacokinetics in dog, i.v.
Description: (§2) The pharmacokinetic profile of LEO 134310 was determined in rat (male Sprague Dawley) and dog (female Beagle) after intravenous (i.v.) injection at 1 mg/kg. LEO 134310 was administered in isotonic cyclodextrin solution at 0.5 mg/mL (0.1% Citrate buffer pH 4, 20% hydroxy-propyl-β-cyclodextrin in 0.2% NaCl). The i.v. dose was given as a bolus in rats and as a slow injection over 2 min in dogs. The dosing volume was 2 mL/kg. Blood was immediately diluted after sampling in an inhibitory cocktail containing acetylcholinesterase inhibitor Dichlorvos [1 mg/mL in an 8 mg/mL K2EDTA solution in phosphate buffer (PBS)] and samples were stored at − 80 °C until analysis. Samples were analyzed by LC–MS/MS using an API 5500/API 6500 QTRAP mass spectrometer. Pharmacokinetic parameters were derived from a non-compartment model in Phoenix64 (Pharsight, Certara).

[7] = target: T1, recombinant human full-length GR (Homo sapiens, UniProt P04150); assay: GR binding assay (fluorescence polarization); conditions: Fluormone GS1
T1 construct: 4 nM recombinant human full-length GR (Thermo Fisher); purchased Thermo Fisher
T1 sequence (P04150 1-777): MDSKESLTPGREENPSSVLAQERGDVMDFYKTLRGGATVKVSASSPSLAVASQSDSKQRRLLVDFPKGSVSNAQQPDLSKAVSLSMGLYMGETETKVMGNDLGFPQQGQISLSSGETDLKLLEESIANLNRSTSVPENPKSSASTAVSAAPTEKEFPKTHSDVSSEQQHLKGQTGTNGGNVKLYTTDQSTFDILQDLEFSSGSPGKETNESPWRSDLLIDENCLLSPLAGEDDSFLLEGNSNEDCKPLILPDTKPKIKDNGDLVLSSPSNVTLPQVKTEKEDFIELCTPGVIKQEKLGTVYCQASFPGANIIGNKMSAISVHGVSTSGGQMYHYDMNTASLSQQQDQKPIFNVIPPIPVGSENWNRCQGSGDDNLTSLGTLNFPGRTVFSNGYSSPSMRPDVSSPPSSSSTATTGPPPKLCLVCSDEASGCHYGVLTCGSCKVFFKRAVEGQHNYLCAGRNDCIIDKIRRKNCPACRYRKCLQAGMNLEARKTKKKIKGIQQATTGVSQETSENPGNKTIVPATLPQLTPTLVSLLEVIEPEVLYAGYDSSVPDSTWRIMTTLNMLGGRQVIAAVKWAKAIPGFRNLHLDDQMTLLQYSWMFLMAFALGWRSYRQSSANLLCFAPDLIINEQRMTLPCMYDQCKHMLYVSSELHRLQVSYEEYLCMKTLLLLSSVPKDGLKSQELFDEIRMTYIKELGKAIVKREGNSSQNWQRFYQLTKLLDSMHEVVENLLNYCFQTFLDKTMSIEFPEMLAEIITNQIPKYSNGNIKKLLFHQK
Description: Binding of GR agonists to human GR was evaluated in a fluorescence polarization assay. 2.5 nM Fluormone GS1 (Thermo Fisher) and 4 nM recombinant human full-length GR (Thermo Fisher) were incubated in the presence of individual test and control compounds. Changes in polarization values were used to determine the relative affinity of test compounds for the GR.

[8] = system: 8 ion channels, 40 kinases, 2 phosphatases, up to 163 G-protein coupled receptors; assay: Off-target panels (Eurofins IonChannelProfiler, KinaseProfiler, GPCRProfiler); conditions: 10 µM
[9] = Hepatocyte stability (dog); assay type: in vitro ADME; conditions: predicted hepatic clearance, well stirred model
Description: as §1

[10] = In vivo pharmacokinetics in rat, i.v.
Description: as §2

Row | Structure (SMILES) | FKBP5 gene expression induced in skin [1] | Effect on morning plasma cortisol [2] | In vitro (hepatocytes) CLH [3] | Higher dose needed to achieve systemic exposure comparable to BMV [4] [fold] | Higher dose needed to achieve systemic exposure comparable to CP [4] [fold] | Interaction with nine nuclear hormone receptors in specific binding assays [5] | In vivo clearance relative to liver blood flow [6] [fold] | In vivo clearance ([6]; i.v. 1 mg/kg) | In vivo terminal half-life ([6]; i.v. 1 mg/kg) | EC50 [7] [µM] | Off-target activity in ion channel, kinase, phosphatase and GPCR panels [8] | In vitro (hepatocytes) CLH [9] | In vivo clearance relative to liver blood flow [10] [fold] | In vivo clearance ([10]; i.v. 1 mg/kg) | In vivo terminal half-life ([10]; i.v. 1 mg/kg)
1 | CCC(=O)O[C@]1(C(=O)CCl)[C@@H](C)C[C@H]2[C@@H]3CCC4=CC(=O)C=C[C@]4(C)[C@@]3(F)[C@@H](O)C[C@@]21C [CP, Clobetasol Propionate] | higher levels of FKBP5 gene expression | reduce morning plasma cortisol significantly |  |  |  |  |  |  |  |  |  |  |  |  | 
2 | C[C@H](NC(=O)[C@H]1CCCO1)[C@H](Oc1ccc(C(=O)O[C@H]2CCCN(C(=O)[C@H]3COC(=O)C3)C2)cc1)c1ccc(C2CC2)cc1 [LEO 134310] |  |  | > 35 (n = 1) mL/min/kg | 800 | 200 | no significant interaction | 15 | 470 ± 97 (n = 3) mL/min/kg | 11 ± 1.2 (n = 3) min | 0.014 | no off-target activity was identified | > 30 (n = 1) mL/min/kg | 5 | 360 ± 85 (n = 3) mL/min/kg | 190 ± 171 (n = 3) min
